The values that follow come from ChEMBL document CHEMBL4627329, “Regioselective synthesis and evaluation of 2-amino 3-cyano chromene-chrysin hybrids as potential anticancer agents” (Bioorg Med Chem Lett, 2020).

Assay [1] relates to A549. Kind of assay: Antiproliferative activity against human A549 cells assessed as inhibition of cell proliferation incubated for 48 hrs by MTT assay. Format: functional, cell-based. Particulars: A549, 48 h.
The test system of assay [2] is K562. Briefly: Antiproliferative activity against human K562 cells assessed as inhibition of cell proliferation incubated for 48 hrs by MTT assay. It is filed as functional, cell-based. Particulars: K562, 48 h. For orientation: Formazan colour is commonly taken as a measure of viable cells.
The test system of assay [3] is PC-3. Briefly: Antiproliferative activity against human PC3 cells assessed as inhibition of cell proliferation incubated for 48 hrs by MTT assay. Particulars: PC-3, 48 h. It is filed as functional, cell-based.
Assay [4] relates to NCI-H1299. Kind of assay: Antiproliferative activity against human NCI-H1299 cells assessed as inhibition of cell proliferation incubated for 48 hrs by MTT assay. It is filed as functional, cell-based. Particulars: NCI-H1299, 48 h.
Assay [5] deals with MRC5. Kind of assay: Cytotoxicity against human MRC5 cells assessed as inhibition of cell proliferation incubated for 48 hrs by MTT assay. Particulars: MRC5, 48 h. It is filed as cell-based.
Assay [6] deals with K562. Briefly: Cell cycle arrest in human K562 cells assessed as decrease in cell population at S phase at 5 uM measured after 24 hrs by flow cytometry analysis. It is filed as functional, cell-based.
Assay [7] deals with K562. Kind of assay: Induction of apoptosis in human K562 cells at assessed as late apoptotic cells at 5 uM measured after 24 hrs by AnnexinV-FITC/propidium iodide staining based flow cytometry (reference value: 2.06 %). It is filed as functional. For orientation: A flow cytometer gives signals particle by particle.
Assay [8] relates to K562. Briefly: Induction of apoptosis in human K562 cells at assessed as early apoptotic cells at 20 uM measured after 24 hrs by AnnexinV-FITC/propidium iodide staining based flow cytometry (reference value: 1.45 %). Format: functional.
Assay [9] concerns K562. Kind of assay: Induction of apoptosis in human K562 cells at assessed as early apoptotic cells at 10 uM measured after 24 hrs by AnnexinV-FITC/propidium iodide staining based flow cytometry (reference value: 1.45 %). Format: functional.
In assay [10] the test system is K562. Kind of assay: Induction of apoptosis in human K562 cells measured after 24 hrs by AnnexinV-FITC/propidium iodide staining based flow cytometry. Format: functional, cell-based.
Assay [11] deals with K562. Briefly: Induction of apoptosis in human K562 cells at assessed as live cells at 20 uM measured after 24 hrs by AnnexinV-FITC/propidium iodide staining based flow cytometry (reference value: 96 %). It is filed as functional.
The subject of assay [12] is K562. Kind of assay: Induction of apoptosis in human K562 cells at assessed as necrotic cells at 10 uM measured after 24 hrs by AnnexinV-FITC/propidium iodide staining based flow cytometry (reference value: 0.518 %). Format: functional.
Assay [13] relates to K562. Kind of assay: Induction of apoptosis in human K562 cells assessed as upregulation of Bax protein expression measured after 24 hrs by Western blot analysis. It is filed as functional, cell-based.
Assay [14] concerns K562. Briefly: Induction of apoptosis in human K562 cells at assessed as early apoptotic cells at 5 uM measured after 24 hrs by AnnexinV-FITC/propidium iodide staining based flow cytometry (reference value: 1.45 %). Format: functional.
For assay [15], the system named is K562. Briefly: Induction of apoptosis in human K562 cells at assessed as late apoptotic cells at 20 uM measured after 24 hrs by AnnexinV-FITC/propidium iodide staining based flow cytometry (reference value: 2.06 %). It is filed as functional.
In assay [16] the test system is K562. Briefly: Induction of apoptosis in human K562 cells at assessed as necrotic cells at 20 uM measured after 24 hrs by AnnexinV-FITC/propidium iodide staining based flow cytometry (reference value: 0.518 %). Format: functional.
The test system of assay [17] is K562. Kind of assay: Cell cycle arrest in human K562 cells assessed as increase in cell population at G1 phase at 5 uM measured after 24 hrs by flow cytometry analysis. It is filed as functional, cell-based.
Assay [18] deals with K562. Briefly: Induction of apoptosis in human K562 cells at assessed as late apoptotic cells at 10 uM measured after 24 hrs by AnnexinV-FITC/propidium iodide staining based flow cytometry (reference value: 2.06 %). It is filed as functional.
In assay [19] the test system is K562. Briefly: Induction of apoptosis in human K562 cells at 5 to 20 uM measured after 24 hrs by AO-EB staining based fluorescence microscopy analysis. It is filed as functional, cell-based.
For assay [20], the system named is K562. Briefly: Induction of apoptosis in human K562 cells assessed as downregulation of Bcl-2 protein measured after 24 hrs by Western blot analysis. It is filed as functional, cell-based. A general note: A western blot detects proteins with antibodies after separation by electrophoresis.
Assay [21] deals with K562. Kind of assay: Induction of apoptosis in human K562 cells at assessed as necrotic cells at 5 uM measured after 24 hrs by AnnexinV-FITC/propidium iodide staining based flow cytometry (reference value: 0.518 %). Format: functional.
Assay [22] relates to K562. Briefly: Induction of apoptosis in human K562 cells at assessed as live cells at 10 uM measured after 24 hrs by AnnexinV-FITC/propidium iodide staining based flow cytometry (reference value: 96 %). It is filed as functional.
For assay [23], the system named is K562. Kind of assay: Induction of apoptosis in human K562 cells at assessed as live cells at 5 uM measured after 24 hrs by AnnexinV-FITC/propidium iodide staining based flow cytometry (reference value: 96 %). It is filed as functional.

The source made the active and inactive calls. The calls are words filed in the database; no cut-off is given here.

Consider `N#CC1=C(N)Oc2cc3oc(-c4ccccc4)cc(=O)c3c(O)c2C1c1cccc(F)c1` (stereo unspecified), for which the IC50 (commonly the point on the concentration scale where inhibition reaches its midpoint) was found to be 20.5 µM in assay [1], 18.6 µM in assay [2], 30.4 µM in assay [3] and 40.8 µM in [4].
Consider `CC(C)(C)c1ccc(C2C(C#N)=C(N)Oc3cc4oc(-c5ccccc5)cc(=O)c4c(O)c32)cc1` (stereo unspecified), for which the IC50 in [1] is above 50 µM; in assay [2] it was 47.1 µM; in assay [3], above 50 µM; in assay [4], above 50 µM.
Consider `COc1ccccc1C1C(C#N)=C(N)Oc2cc3oc(-c4ccccc4)cc(=O)c3c(O)c21` (stereo unspecified), for which the IC50 in [1] is above 50 µM; in assay [2], 20.2 µM; in [3] it was above 50 µM; in assay [4] it was above 50 µM.
With `COc1cccc(C2C(C#N)=C(N)Oc3cc4oc(-c5ccccc5)cc(=O)c4c(O)c32)c1OC` (stereo unspecified), the IC50 in assay [1] was above 50 µM; in assay [2] it was 16.8 µM; in [3], above 50 µM; in assay [4], above 50 µM.
For the compound `N#CC1=C(N)Oc2cc3oc(-c4ccccc4)cc(=O)c3c(O)c2C1c1ccc(F)cc1` (stereo unspecified), the half-maximal inhibitory concentration (IC50) in assay [1] is 15.4 µM; in assay [2], 14.5 µM; in [3], 26.1 µM; in assay [4] it was above 50 µM.
For `Cc1ccc(C2C(C#N)=C(N)Oc3cc4oc(-c5ccccc5)cc(=O)c4c(O)c32)cc1` (stereo unspecified) the same measures were 48.5 µM, 14.8 µM, 28.4 µM and 28.5 µM.
The like results for `COc1ccc(-c2cc(=O)c3c(O)c4c(cc3o2)OC(N)=C(C#N)C4c2ccc(F)cc2)c(OC)c1` (stereo unspecified) were, in that order, above 50 µM, 45.2 µM, above 50 µM and 44.8 µM.
On to `N#CC1=C(N)Oc2cc3oc(-c4ccccc4)cc(=O)c3c(O)c2C1c1ccc(Cl)cc1` (stereo unspecified), for which the IC50 was above 50 µM in assay [1], 12.4 µM in [2], above 50 µM in [3] and 33.1 µM in assay [4].
For the compound `N#CC1=C(N)Oc2cc3oc(-c4ccccc4)cc(=O)c3c(O)c2C1c1ccc(Br)cc1` (stereo unspecified), the IC50 is above 50 µM in [1], 10.1 µM in [2], 46.8 µM in assay [3] and 18.8 µM in [4].
Regarding `O=c1cc(-c2ccccc2)oc2cc(O)cc(O)c12` [CHRYSIN], the half-inhibitory concentration (IC50) in assay [1] was above 50 µM; in assay [2], above 50 µM; in assay [3], above 50 µM; in assay [4], above 50 µM; in [5], above 100 µM.
Take `N#CC1=C(N)Oc2cc3oc(-c4ccccc4)cc(=O)c3c(O)c2C1c1ccccc1Br` (stereo unspecified): the IC50 in assay [1] is above 50 µM; in [2], 48.8 µM; in assay [3], above 50 µM; in assay [4], above 50 µM.
Regarding `COc1c2c(c(O)c3c(=O)cc(-c4ccccc4)oc13)C(c1ccc(C)cc1)C(C#N)=C(N)O2` (stereo unspecified), the 50% inhibitory concentration (IC50) in assay [1], in [2], in [3] and in assay [4] was above 50 µM each time.
Consider `Cc1ccc(C2C(C#N)=C(N)Oc3cc4oc(-c5ccccc5)cc(=O)c4c(O)c32)c(C)c1` (stereo unspecified), for which the IC50 in assay [1] is above 50 µM; in assay [2], 19.7 µM; in assay [3], above 50 µM; in [4], 42 µM.
As for `N#CC1=C(N)Oc2cc3oc(-c4ccccc4)cc(=O)c3c(O)c2C1c1ccccc1` (stereo unspecified), the IC50 in [1] is 31.6 µM; in assay [2], 43 µM; in [3] it was 46.9 µM; in assay [4] it was above 50 µM.
Take `N#CC1=C(N)Oc2cc3oc(-c4ccccc4)cc(=O)c3c(O)c2C1c1ccccc1Cl` (stereo unspecified): the 50% inhibitory concentration (IC50) in assay [1] is above 50 µM; in [2], 14.4 µM; in assay [3], above 50 µM; in assay [4] it was 43.4 µM.
Take `N#CC1=C(N)Oc2cc3oc(-c4ccccc4)cc(=O)c3c(O)c2C1c1cccc(Br)c1` (stereo unspecified): the Activity result in [6] was “Dose-dependent effect”; in assay [7] it was 2.85%; in assay [8], 27.6%; in assay [9], 14.4%; in [10], “Dose-dependent effect”; in assay [11], 62.4%. Further, the Activity in assay [12] was 2.84%; in [13], “Dose-dependent effect”; in assay [14], 5.87%; in assay [15], 7.58%; in assay [16], 2.44%; in [17], “Dose-dependent effect”. Besides, the Activity in assay [18] is 5.23%; in [20] it was “Dose-dependent effect”; in assay [21], 1.06%; in assay [22], 77.6%; in assay [23], 90.2%. For the same compound, the IC50 in assay [1] is above 50 µM; in assay [2], 6.41 µM; in assay [3], 36.8 µM; in [4], 24.2 µM; in assay [5], above 100 µM. In addition, in assay [19], the outcome was Active.
Consider `COc1ccc(C2C(C#N)=C(N)Oc3cc4oc(-c5ccccc5)cc(=O)c4c(O)c32)cc1` (stereo unspecified), for which the IC50 was above 50 µM in assay [1], 38.1 µM in assay [2], above 50 µM in [3] and 40.1 µM in assay [4].
As for `N#CC1=C(N)Oc2cc3oc(-c4ccccc4)cc(=O)c3c(O)c2C1c1ccccc1F` (stereo unspecified), the half-maximal inhibitory concentration (IC50) worked out at 44 µM in [1], 28.1 µM in [2], 43.2 µM in assay [3] and 45.3 µM in assay [4].
As to `N#CC1=C(N)Oc2cc3oc(-c4ccccc4)cc(=O)c3c(O)c2C1c1cccc([N+](=O)[O-])c1` (stereo unspecified), the IC50 in [1] was 31.9 µM; in assay [2], 15.6 µM; in [3] it was 41.3 µM; in assay [4] it was 40.8 µM.
